Where “and” joins values, the source holds several entries; their conditions need not be identical. Identical values can stand only once.
Tested on: bFGF-Stimulated Corneal Angiogenesis
Assay: rabbit corneal micropocket model, paralimbal intrascleral injection
Assay type: in vivo
Details: for Area of neovascularisation, MEAN / Area of neovascularisation (individual eye): single (Day 0) intrascleral injection, 100 μl, 2.0 mg/ml in PBS; for Area of neovascularisation, MEAN: mean of 12 eyes; for Area of neovascularisation (individual eye): one value per rabbit eye (R/L); for neovascularisation inhibited compared to the animal group receiving PBS only: single intrascleral injection 100 μl, 2.0 mg/ml, p<0.01
Description: (1996). In this model angiogenesis is stimulated by implantation of Hydron pellets containing an angiogenesis stimulating cytokine like, for example, fibroblast growth factor (FGF) or vascular endothelial growth factor (VEGF) into the cornea. After implantation the active compound to be tested is administered by paralimbal intrascleral injection. Effect on neovascularisation is measured after predetermined time intervals by visual examination using a microscope, photographing and computer-assisted quantification of photographs.
The effect of intrascleral application of an αvβ3 and/or αvβ5 inhibitor was examined in rabbit corneal micropocket model as described by Shaffer R. W. (see above). As an example for an αvβ3 and/or αvβ5 inhibitor (2S)-2-(2,2-dimethylpropyloxycarboxamido)-3-{3,4-dihydro-2-[N-(2-imidazolyl)carbamoylethyl]-(2S)-2H-1,4-benzoxazin-3-on-6-yl}propionic acid was used in the experiment. For induction of angiogenesis Hydron pellets containing basic fibroblast growth factor (bFGF) were used. Preparation of bFGF containing implants was performed by casting Hydron [poly(hydroxyethyl)methacrylate] in specially prepared Teflon pegs that have a 5 mm core drilled into their surfaces. Approximately 12 μl of casting material was placed into each peg and polymerized overnight in a sterile hood, then sterilized by ultraviolet irradiation.
The experiment consisted of 12 animals; in each eye of the animals one individual pellet was implanted into a surgically created “pocket” in the mid stroma of the rabbit cornea. The surgical procedure was done under sterile technique using a Wild model M691 operating microscope equipped with a beamsplitter and camera for photographically recording individual corneas. A 69 Beaver blade was used to create a 3 mm by 5 mm “pocket” to a depth of half the corneal thickness. The stroma was dissected peripherally using an spatula and the pellet implanted with its peripheral margin 2 mm from limbus. Immediately after implantation of bFGF-containing Hydron pellets 6 of the 12 animals received in each eye 100 μl of a drug solution consisting of 2.0 mg/ml (2S)-2-(2,2-dimethylpropyloxycarboxamido)-3-3,4-dihydro-2-[N-(2-imidazolyl)carbamoylethyl]-(2S)-2H-1,4-benzoxazin-3-on-6-yl}propionic acid solubilized in phosphate buffered saline (PBS) by paralimbal intrascleral injection. For comparison the same procedure was performed in the other 6 animals using PBS only. Following implantation the eyes were photographed and the area of neovascularisation measured after predetermined intervals.

In the case of `CC(C)(C)COC(=O)N[C@@H](Cc1ccc2c(c1)NC(=O)[C@H](CCC(=O)Nc1ncc[nH]1)O2)C(=O)O` [(2S)-2-(2,2-dimethylpropyloxycarboxamido)-3-{3,4-dihydro-2-[N-(2-imidazolyl)carbamoylethyl]-(2S)-2H-1,4-benzoxazin-3-on-6-yl}propionic acid], the “Area of neovascularisation, MEAN” value (5 Day Post-Implantation) is reported as 8.39 mm^2, the “Area of neovascularisation (individual eye)” value (5 Day Post-Implantation) is reported as 3.47 mm^2 and 26.79 mm^2 and 14.76 mm^2 and 7.70 mm^2 and 1.00 mm^2 and 0.88 mm^2 and 8.19 mm^2 and 2.26 mm^2 and 0.0 mm^2 and 7.31 mm^2 and 15.85 mm^2 and 12.45 mm^2 and the “Area of neovascularisation, MEAN” value (7 Day Post-Implantation) is reported as 10.32 mm^2. For the same compound, the “Area of neovascularisation (individual eye)” value (7 Day Post-Implantation) was 6.69 mm^2 and 27.96 mm^2 and 15.58 mm^2 and 11.32 mm^2 and 2.09 mm^2 and 1.91 mm^2 and 11.93 mm^2 and 3.51 mm^2 and 0.0 mm^2 and 11.56 mm^2 and 16.90 mm^2 and 14.40 mm^2, the “neovascularisation inhibited compared to the animal group receiving PBS only” value (5 days post implantation) was 56.5% and the “neovascularisation inhibited compared to the animal group receiving PBS only” value (7 days post implantation) was 52.3%.

From US7648959B2, “Methods and compositions for the treatment of diseases of the eye” (Merck Patent GmbH, priority 2000, dated 2010)
